The source of these data is publication PMC6269914, “In Vitro Evaluation of Novel Inhibitors against the NS2B-NS3 Protease of Dengue Fever Virus Type 4” (Molecules, 2013).

The target of test [1] is T1, DENV4 NS2B-NS3pro (Dengue virus type 4, UniProt Q2YHF0, DELINS1442-1474GGGGSGGGG). Put plainly: In vitro inhibition assay of recombinant NS2B-NS3pro with fluorogenic AMC peptide substrate. It counts as biochemical, dengue virus type 4 (DENV4). Particulars: for Inhibition Activity: primary inhibition assay at a 100 μM concentration of inhibitors, Table S1; for Inhibition: inhibition activity at 100 μM, 1.65 µM AMC peptide substrate, Table 2.

The target of test [2] is T1, DENV4 NS2B-NS3pro. Put plainly: Inhibitor enzyme kinetics (Lineweaver-Burk and Dixon plots) against NS2B-NS3pro. In kind it is biochemical, dengue virus type 4 (DENV4). Particulars: AMC peptide substrates. The method, then:
Inhibitory kinetic experiments were performed at different constant inhibitor concentrations and different substrate concentrations. Lineweaver–Burk and Dixon plots were used to analyze the inhibition modes of these compounds. Ki values were calculated from the Dixon plots.
The type of inhibition was determined using Lineweaver–Burk plots, and Ki values were determined with a Dixon plot (1/v as a function of [I], inhibitor concentration) from different inhibitor concentrations.

T1 sequence (Q2YHF0 1475-1660, added parts left off, stated change not applied): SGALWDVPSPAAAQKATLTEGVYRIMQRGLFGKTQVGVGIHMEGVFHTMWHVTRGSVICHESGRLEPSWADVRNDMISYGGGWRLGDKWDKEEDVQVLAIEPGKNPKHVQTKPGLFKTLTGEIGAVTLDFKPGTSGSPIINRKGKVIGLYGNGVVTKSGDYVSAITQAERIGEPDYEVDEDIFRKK

Turning to `CCN(CC)CCn1c(NC(=O)c2ccc(Cn3nc([N+](=O)[O-])c(Cl)c3C)o2)nc2ccccc21` [Compound 2, 5-((4-chloro-5-methyl-3-nitro-1H-pyrazol-1-yl)methyl)-N-(1-(2-(diethylamino)ethyl)-1H-benzo[d]imidazol-2-yl)furan-2-carboxamide], the “Inhibition Activity” value on DENV4 NS2B-NS3pro [1] is reported as 95.23%. Further, the Inhibition mode entry on DENV4 NS2B-NS3pro [2] is reported as “competitive inhibitors”.
Consider `Cc1nc2sc(C(=O)c3ccc(-c4ccc(C(=O)c5sc6nc(C)c(C)c(C)c6c5N)cc4)cc3)c(N)c2c(C)c1C` [Compound 10, [1,1'-biphenyl]-4,4'-diylbis((3-amino-4,5,6-trimethylthieno[2,3-b]pyridin-2-yl)methanone)], for which, on DENV4 NS2B-NS3pro [1], the “Inhibition Activity” value was 7.59%.
For orientation: Inhibition means the share of the control response that was lost under treatment. As to `O=S(=O)(c1ccc(-c2csc(N3N=C(c4cccs4)CC3c3ccc(F)cc3)n2)cc1)N1CCCCC1` (stereo not shown) [Compound 12, 2-(5-(4-fluorophenyl)-3-(thiophen-2-yl)-4,5-dihydro-1H-pyrazol-1-yl)-4-(4-(piperidin-1-ylsulfonyl)phenyl)thiazole], at DENV4 NS2B-NS3pro [1], the Inhibition came out at 85.2% and the “Inhibition Activity” value was found to be 85.17%.
Take `CC(=O)N1N=C(c2cc(-c3ccccc3)nc3ccccc23)OC1c1ccc(C(=O)O)cc1` (stereo not shown) [Compound 14, 4-(3-acetyl-5-(2-phenylquinolin-4-yl)-2,3-dihydro-1,3,4-oxadiazol-2-yl)benzoic acid]: the “Inhibition Activity” value on DENV4 NS2B-NS3pro [1] turned out to be 98.15%. The Inhibition mode entry at DENV4 NS2B-NS3pro [2] is recorded as “competitive inhibitors”.
With `Cc1cccc(-c2nc3nc(C)cc(Nc4ccc(CC(=O)O)cc4)n3n2)c1` [Compound 15, 2-(4-((5-methyl-2-(m-tolyl)-[1,2,4]triazolo[1,5-a]pyrimidin-7-yl)amino)phenyl)acetic acid], on DENV4 NS2B-NS3pro [1], the “Inhibition Activity” value was determined as 17.36%.
As to `COC(=O)CSc1ncn(-c2nc(N3CCCCC3)nc(N3CCCCC3)n2)n1` [Compound 19, methyl 2-((1-(4,6-di(piperidin-1-yl)-1,3,5-triazin-2-yl)-1H-1,2,4-triazol-3-yl)thio)acetate], the “Inhibition Activity” value at DENV4 NS2B-NS3pro [1] amounted to 10.28%.
On the same count and under the same terms, the same measure for `O=C1c2ccccc2C(=O)N1c1cccc(-c2csc(N3N=C(c4ccccc4)CC3c3ccccc3)n2)c1` (stereo not shown) [Compound 21, 2-(3-(2-(3,5-diphenyl-4,5-dihydro-1H-pyrazol-1-yl)thiazol-4-yl)phenyl)isoindoline-1,3-dione]: 21.27%.
In the case of `Cc1cccc(C)c1-n1c(SCc2cc(=O)n3cc(Cl)ccc3n2)nc2c(sc(=S)n2-c2c(C)cccc2C)c1=O` [Compound 22, 5-[[(7-chloro-4-oxo-4H-pyrido[1,2-a]pyrimidin-2-yl)methyl)sulfanyl)-3,6-bis(2,6-dimethylphenyl)-2-thioxo-2,3-dihydro[1,3]thiazolo[4,5-d]pyrimidin-7(6H)-one], at DENV4 NS2B-NS3pro [1], the “Inhibition Activity” value amounted to 91.65%. Also, the Inhibition mode result on DENV4 NS2B-NS3pro [2] is listed as “competitive inhibitors”.
As to `Cc1nn(-c2ccccc2)c2c1nc(CCC(=O)NCCN1CCN(C)CC1)c(=O)n2C` [Compound 24, 3-(3,7-dimethyl-6-oxo-1-phenyl-6,7-dihydro-1H-pyrazolo[3,4-b]pyrazin-5-yl)-N-(2-(4-methylpiperazin-1-yl)ethyl)propanamide], the “Inhibition Activity” value at DENV4 NS2B-NS3pro [1] was 29.46%.
On the same count and under the same terms, to `Nc1nonc1-c1nc2ccccc2n1Cc1ccc(Cn2c(-c3nonc3N)nc3ccccc32)cc1` [Compound 25, 4,4'-(1,1'-(1,4-phenylenebis(methylene))bis(1H-benzo[d]imidazole-2,1-diyl))bis(1,2,5-oxadiazol-3-amine)] belongs 36.45%.
Regarding `O=C(O)CCCNc1cc(N2CCCCCC2)c2noc3c2c1C(=O)c1ccccc1-3` [Compound 27, 4-((3-(azepan-1-yl)-6-oxo-6H-anthra[1,9-cd]isoxazol-5-yl)amino)butanoic acid], on DENV4 NS2B-NS3pro [1], the Inhibition came to 82.5% and the “Inhibition Activity” value turned out to be 82.53%.
For `O=C(NCCN1CCCCC1)c1cccc(Nc2ccc(-c3cccc(F)c3)nn2)c1` [Compound 29, 3-((6-(3-fluorophenyl)pyridazin-3-yl)amino)-N-(2-(piperidin-1-yl)ethyl)benzamide], in that order: 66.6% and 66.55%.
On to `C(=C\CSc1nnc(-c2ccccc2)c(-c2ccccc2)n1)/CSc1nnc(-c2ccccc2)c(-c2ccccc2)n1` [Compound 33, (E)-1,4-bis((5,6-diphenyl-1,2,4-triazin-3-yl)thio)but-2-ene], for which, on DENV4 NS2B-NS3pro [1], the “Inhibition Activity” value came to 40.52%.
“(5,7-dimethyl-6-(3-methylbenzyl)pyrazolo[1,5-a]pyrimidin-3-yl)(4-(2,5-dimethylphenyl)piperazin-1-yl)methanone [Compound 6]”: at DENV4 NS2B-NS3pro [1], the “Inhibition Activity” value is 8.61%.
On the same count and under the same terms, the same measure for “N2,N2-dimethyl-6-(((4-methyl-5-((2-methyl-5-nitro-1H-imidazol-1-yl)methyl)-4H-1,2,4-triazol-3-yl)thio)methyl)-1,3,5-triazine-2,4-diamine [Compound 31]”: 6.49%.
The same measure, in the same setting: to “N-(1,5-dimethyl-3-oxo-2-phenyl-2,3-dihydro-1H-pyrazol-4-yl)-2-((5,9-dimethyl-[1,2,4]triazolo[4,3-a]quinolin-1-yl)thio)acetamide [Compound 26]” belongs 28.11%; to “N-(1-benzyl-1H-benzo[d]imidazol-2-yl)-5-((3-nitro-1H-1,2,4-triazol-1-yl)methyl)furan-2-carboxamide [Compound 32]”, 45.55%; to “N-(3-(4-cyclohexylpiperazin-1-yl)propyl)-1-(5-(2-oxopyrrolidin-1-yl)-1,3,4-thiadiazol-2-yl)piperidine-3-carboxamide [Compound 23]”, 17.71%.
With “N-(3-(4-ethylpiperazin-1-yl)propyl)-1-(5-(2-oxopyrrolidin-1-yl)-1,3,4-thiadiazol-2-yl)piperidine-3-carboxamide [Compound 30]”, the “Inhibition Activity” value at DENV4 NS2B-NS3pro [1] came out at 1.3%.
Same read-out and setting: to “N-(3-(piperidin-1-yl)propyl)-1-(6-(p-tolyl)imidazo[2,1-b][1,3,4]thiadiazol-2-yl)piperidine-3-carboxamide [Compound 8]” belongs 33.48%.
Regarding “N-(4-((2-(benzo[d][1,3]dioxol-5-yl)-1,3-dioxoisoindolin-5-yl)oxy)phenyl)-1-oxo-4-phenyl-1H-isochromene-3-carboxamide [Compound 20]”, at DENV4 NS2B-NS3pro [1], the “Inhibition Activity” value is 28.87%.
For “N-cycloheptyl-2,5-dimethyl-4-(4-(pyridin-2-yl)piperazin-1-yl)thieno[2,3-d]pyrimidine-6-carboxamide [Compound 28]”, the “Inhibition Activity” value at DENV4 NS2B-NS3pro [1] worked out at 32.84%.
